Where “and” joins values, the source holds several entries; their conditions need not be identical. Identical values can stand only once. Entries after “also recorded” stand apart in the source; their conditions may differ. Like-named read-outs stand apart in the source and are kept apart here.
Legend:
α1β2γ2 GABAA receptors = α1β2γ2 GABAA receptors (Rattus norvegicus, UniProt P62813+P63138); format: cell-based, rat α1, rat β2, murine γ2
α1β2 GABAA receptor = α1β2 GABAA receptor (Rattus norvegicus, UniProt P62813+P63138); format: cell-based, rat α1, rat β2
α1β1γ2 GABAA receptors = α1β1γ2 GABAA receptors (Rattus norvegicus, UniProt P15431+P62813); format: cell-based, rat α1, rat β1, murine γ2
α1β3γ2 GABAA receptors = α1β3γ2 GABAA receptors (UniProt P28472+P62813); format: cell-based, rat α1, human β3, murine γ2
[1] = target: α1β2(M286W)γ2 GABAA receptors (Rattus norvegicus, UniProt P62813+P63138, M310W); experiment: Two-electrode voltage clamp on Xenopus laevis oocytes expressing mutant α1β2; format: cell-based, rat α1, rat β2, murine γ2
[2] = target: α1β2(N265M)γ2 GABAA receptors (Rattus norvegicus, UniProt P62813+P63138, N289M); experiment: as above; format: cell-based, rat α1, rat β2, murine γ2
[3] = cited from earlier work
5HT3A receptor = conditions: cited from earlier work
α1β2γ2 receptors = conditions: read-out: EC50 for potentiation; cited from earlier work

α1β1γ2 GABAA receptors, sequence (P62813 28-455): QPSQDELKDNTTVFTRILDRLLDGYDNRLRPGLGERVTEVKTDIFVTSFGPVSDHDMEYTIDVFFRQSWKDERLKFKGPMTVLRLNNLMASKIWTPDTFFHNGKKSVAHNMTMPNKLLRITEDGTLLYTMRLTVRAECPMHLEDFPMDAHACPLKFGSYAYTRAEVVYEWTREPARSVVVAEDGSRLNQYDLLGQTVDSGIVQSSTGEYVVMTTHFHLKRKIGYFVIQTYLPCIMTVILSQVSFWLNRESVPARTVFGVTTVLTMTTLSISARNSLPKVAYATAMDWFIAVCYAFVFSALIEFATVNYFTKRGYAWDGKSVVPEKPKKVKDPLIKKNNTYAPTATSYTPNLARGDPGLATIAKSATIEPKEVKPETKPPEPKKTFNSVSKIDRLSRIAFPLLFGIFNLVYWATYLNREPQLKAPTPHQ
α1β1γ2 GABAA receptors, sequence (P15431 26-474): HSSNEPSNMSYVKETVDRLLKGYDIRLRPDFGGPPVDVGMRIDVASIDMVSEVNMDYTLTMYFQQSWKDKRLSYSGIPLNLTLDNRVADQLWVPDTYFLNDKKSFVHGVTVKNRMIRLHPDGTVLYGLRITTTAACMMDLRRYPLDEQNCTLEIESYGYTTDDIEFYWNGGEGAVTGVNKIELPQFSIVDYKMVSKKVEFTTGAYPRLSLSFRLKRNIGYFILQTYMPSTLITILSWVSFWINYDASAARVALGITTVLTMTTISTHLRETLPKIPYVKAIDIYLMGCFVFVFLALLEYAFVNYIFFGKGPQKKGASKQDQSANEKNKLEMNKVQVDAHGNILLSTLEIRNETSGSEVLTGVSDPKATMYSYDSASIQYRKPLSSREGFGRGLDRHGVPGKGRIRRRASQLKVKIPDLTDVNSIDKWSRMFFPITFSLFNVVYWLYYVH
α1β1γ2 GABAA receptors, sequence (P22723 39-474 partner): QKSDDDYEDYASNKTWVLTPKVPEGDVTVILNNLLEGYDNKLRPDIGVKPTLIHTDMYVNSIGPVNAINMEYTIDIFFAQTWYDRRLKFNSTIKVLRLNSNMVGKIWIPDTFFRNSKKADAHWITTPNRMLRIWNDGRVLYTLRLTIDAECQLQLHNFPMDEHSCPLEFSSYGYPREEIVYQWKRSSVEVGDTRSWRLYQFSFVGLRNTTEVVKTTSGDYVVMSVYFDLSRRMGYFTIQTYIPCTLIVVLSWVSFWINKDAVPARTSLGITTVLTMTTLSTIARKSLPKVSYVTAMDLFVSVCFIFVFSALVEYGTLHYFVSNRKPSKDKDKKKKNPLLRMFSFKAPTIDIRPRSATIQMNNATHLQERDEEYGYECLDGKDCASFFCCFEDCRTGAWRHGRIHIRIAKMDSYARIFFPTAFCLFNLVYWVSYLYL
α1β2(M286W)γ2 GABAA receptors, sequence (P62813 28-455): as the sequence (P62813 28-455) above
α1β2(M286W)γ2 GABAA receptors, sequence (P63138 25-474 M310W limits assumed): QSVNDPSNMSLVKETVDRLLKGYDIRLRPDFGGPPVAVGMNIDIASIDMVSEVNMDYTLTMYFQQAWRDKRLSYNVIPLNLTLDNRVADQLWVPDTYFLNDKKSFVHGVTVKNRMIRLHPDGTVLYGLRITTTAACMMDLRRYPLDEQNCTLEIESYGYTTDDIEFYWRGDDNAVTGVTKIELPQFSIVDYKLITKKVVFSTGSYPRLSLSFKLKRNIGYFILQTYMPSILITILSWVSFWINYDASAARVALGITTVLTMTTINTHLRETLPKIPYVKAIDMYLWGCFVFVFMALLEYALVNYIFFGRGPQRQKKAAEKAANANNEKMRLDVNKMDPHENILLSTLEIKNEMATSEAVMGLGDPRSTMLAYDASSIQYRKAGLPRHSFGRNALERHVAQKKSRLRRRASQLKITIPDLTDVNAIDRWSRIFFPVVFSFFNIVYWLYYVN
α1β2(M286W)γ2 GABAA receptors, sequence (P22723 39-474 partner): as the sequence (P22723 39-474 partner) above
α1β2γ2 GABAA receptors, sequence (P62813 28-455): as the sequence (P62813 28-455) above
α1β2γ2 GABAA receptors, sequence (P63138 25-474 limits assumed): as the sequence (P63138 25-474 M310W limits assumed) above, with W286M counted along it
α1β2γ2 GABAA receptors, sequence (P22723 39-474 partner): as the sequence (P22723 39-474 partner) above
α1β2 GABAA receptor, sequence (P62813 28-455): as the sequence (P62813 28-455) above
α1β2 GABAA receptor, sequence (P63138 25-474 limits assumed): as the sequence (P63138 25-474 M310W limits assumed) above, with W286M counted along it
α1β3γ2 GABAA receptors, sequence (P62813 28-455): as the sequence (P62813 28-455) above
α1β3γ2 GABAA receptors, sequence (P28472 26-473): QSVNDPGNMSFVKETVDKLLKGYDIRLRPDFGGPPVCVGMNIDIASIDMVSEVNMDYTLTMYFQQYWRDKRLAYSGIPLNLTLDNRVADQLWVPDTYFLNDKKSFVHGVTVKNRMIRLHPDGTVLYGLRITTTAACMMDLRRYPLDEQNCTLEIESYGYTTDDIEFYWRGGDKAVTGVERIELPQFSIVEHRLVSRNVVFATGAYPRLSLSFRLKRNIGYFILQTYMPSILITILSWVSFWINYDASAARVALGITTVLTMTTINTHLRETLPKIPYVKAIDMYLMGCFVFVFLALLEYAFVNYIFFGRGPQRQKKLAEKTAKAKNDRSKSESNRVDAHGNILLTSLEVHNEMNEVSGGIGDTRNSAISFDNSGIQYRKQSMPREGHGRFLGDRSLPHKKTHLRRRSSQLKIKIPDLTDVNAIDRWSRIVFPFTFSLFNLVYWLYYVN
α1β3γ2 GABAA receptors, sequence (P22723 39-474 partner): as the sequence (P22723 39-474 partner) above
α1β2(N265M)γ2 GABAA receptors, sequence (P62813 28-455): as the sequence (P62813 28-455) above
α1β2(N265M)γ2 GABAA receptors, sequence (P63138 25-474 N289M limits assumed): as the sequence (P63138 25-474 M310W limits assumed) above, with N265M, W286M counted along it
α1β2(N265M)γ2 GABAA receptors, sequence (P22723 39-474 partner): as the sequence (P22723 39-474 partner) above

CC1(C)C=Cc2c(ccc3c2OC[C@@H](c2ccc(O)cc2O)C3)O1 [glabridin]
EC50 (α1β2γ2 GABAA receptors; Modulatory EC50, α1β2γ2, potentiation of current evoked by 3 µM GABA): 6 µM and 6.3 µM
Concentration at which potentiation of GABA-induced currents starts (α1β2γ2 GABAA receptors; α1β2γ2, 3 µM GABA): 1 µM
Concentration of maximal potentiation (α1β2γ2 GABAA receptors; α1β2γ2, 3 µM GABA): approximately 30 µM
Potentiating action of 30 µM glabridin in the presence of flumazenil (α1β2γ2 GABAA receptors; α1β2γ2, 3 µM GABA, 30 µM glabridin, 1 µM flumazenil): not significantly altered
Fold decrease of GABA EC50 (α1β2γ2 GABAA receptors; α1β2γ2, 30 µM glabridin): 12 fold and 12.3 fold
Direct activation by 30 µM glabridin (α1β2γ2 GABAA receptors; α1β2γ2, 30 µM glabridin in the absence of GABA, normalized to GABA current): 0.07±0.02
Fold potentiation by 30 µM glabridin (α1β2γ2 GABAA receptors; α1β2γ2, 30 µM glabridin, 3 µM GABA): 6.20±1.41 fold
Fold decrease of GABA EC50 (α1β2γ2 GABAA receptors; α1β2γ2, 30 µM glabridin, listed as Glabridin): approximately 12 fold
Direct activation, share of the maximally evoked current by saturating GABA concentrations (α1β2γ2 GABAA receptors; α1β2γ2, 100 µM glabridin in the absence of GABA, n=4): up to 17±7%
Screening for potentiation of GABA-induced currents (α1β2γ2 GABAA receptors; α1β2γ2, components of Glycyrrhiza at 10 µM, n=3–4): the only potentiator of the tested substances
Direct activation at lower concentrations (α1β2γ2 GABAA receptors; α1β2γ2, glabridin up to 10 µM in the absence of GABA): failed to activate
Threshold concentration for direct activation (α1β2γ2 GABAA receptors; α1β2γ2, in the absence of GABA): 30 µM
Maximally induced current evoked by 1 mM GABA (α1β2γ2 GABAA receptors; α1β2γ2, with 30 µM glabridin, p=0.055, n=4): not significantly altered
EC50 (α1β2 GABAA receptor): 9.63 ± 0.7 µM
Fold decrease of GABA EC50 (α1β2 GABAA receptor; α1β2, 30 µM glabridin): 1.8 fold
Direct activation by 30 µM glabridin (α1β2 GABAA receptor; α1β2, 30 µM glabridin in the absence of GABA, normalized to GABA current): 0.11±0.05
Fold potentiation by 30 µM glabridin (α1β2 GABAA receptor; α1β2, 30 µM glabridin, 3 µM GABA): 4.23±0.56 fold
EC50 (α1β1γ2 GABAA receptors): 17.2 ± 2.64 µM
Fold decrease of GABA EC50 (α1β1γ2 GABAA receptors; α1β1γ2, 30 µM glabridin): 4.4 fold
Direct activation by 30 µM glabridin (α1β1γ2 GABAA receptors; α1β1γ2, 30 µM glabridin in the absence of GABA, normalized to GABA current): 0.14±0.08
Fold potentiation by 30 µM glabridin (α1β1γ2 GABAA receptors; α1β1γ2, 30 µM glabridin, 1 µM GABA): 5.07±1.45 fold
EC50 (α1β3γ2 GABAA receptors): 6.83 ± 3.07 µM
Fold decrease of GABA EC50 (α1β3γ2 GABAA receptors; α1β3γ2, 30 µM glabridin): 6.8 fold
Direct activation by 30 µM glabridin (α1β3γ2 GABAA receptors; α1β3γ2, 30 µM glabridin in the absence of GABA, normalized to GABA current): 0.08±0.04
Fold potentiation by 30 µM glabridin (α1β3γ2 GABAA receptors; α1β3γ2, 30 µM glabridin, 10 µM GABA): 2.63±0.42 fold
Fold decrease of GABA EC50 ([1]; 30 µM glabridin): 0.75 fold
Fold potentiation by 30 µM glabridin ([1]; 30 µM glabridin, 3 µM GABA): 1.04±0.05 fold
Modulatory EC50 ([1]; potentiation of current evoked by 3 µM GABA): Neither a potentiating effect nor any shift; also recorded: no potentiation
EC50 [2]: 32.6 ± 1.52 µM
Fold decrease of GABA EC50 ([2]; α1β2(N265M)γ2, 30 µM glabridin): 3.5 fold
Crossing of the blood-brain-barrier [3]: able to cross the blood-brain-barrier
Action on 5HT3A receptor channel (5HT3A receptor): blocker of the channel

CC(C)c1cccc(C(C)C)c1O [propofol]
EC50 (α1β2γ2 receptors): ~2 µM

— paper PMC5689168 (Biochemistry and Biophysics Reports, 2016)
